Results published in the NIST ThermoML archive (doi:10.1021/acs.jced.6b00269).
Numbers after ± are expanded uncertainties.

Conditions: for viscosity / mass density: 101.33 kPa, Liquid; for viscosity: Cone and plate viscometry; for mass density: Vibrating tube method; for Glass transition temperature: DSC

CCCCCCCCCCCCCC[P+](CCCCCC)(CCCCCC)CCCCCC.O=[N+]([O-])c1c[n-]cn1 [trihexyl(tetradecyl)phosphonium 4-nitroimidazolide]
Conditions	Glass transition temperature [°C]	mass density [kg/m3]	viscosity [mPa·s]
–	-66 ± 2	–	–
278.15 K	–	–	3380 ± 340
283.15 K	–	949.4 ± 4.9	2220 ± 210
288.15 K	–	946.3 ± 4.9	1500 ± 140
293.15 K	–	943.1 ± 4.8	1040 ± 91
295.15 K	–	941.8 ± 4.8	–
298.15 K	–	940.1 ± 4.8	735 ± 61
303.15 K	–	937.1 ± 4.8	533 ± 42
308.15 K	–	934.2 ± 4.8	396 ± 30
313.15 K	–	931.3 ± 4.7	298 ± 22
318.15 K	–	928.4 ± 4.7	230 ± 16
323.15 K	–	925.4 ± 4.7	180 ± 13
328.15 K	–	922.6 ± 4.7	144 ± 10
333.15 K	–	919.7 ± 4.7	117 ± 8
338.15 K	–	916.9 ± 4.6	96 ± 6
343.15 K	–	914 ± 4.6	80 ± 5
348.15 K	–	911.2 ± 4.6	–
353.15 K	–	908.3 ± 4.6	–

CCCCCCCCCCCCCC[P+](CCCCCC)(CCCCCC)CCCCCC.O=[N+]([O-])c1cn[n-]c1 [trihexyl(tetradecyl)phosphonium 4-nitropyrazolide]
Conditions	Glass transition temperature [°C]	mass density [kg/m3]	viscosity [mPa·s]
–	-75 ± 2	–	–
278.15 K	–	–	3560 ± 370
283.15 K	–	948.8 ± 4.9	2290 ± 220
288.15 K	–	945.6 ± 4.9	1500 ± 140
293.15 K	–	942.3 ± 4.8	1020 ± 89
295.15 K	–	941.1 ± 4.8	–
298.15 K	–	939.3 ± 4.8	710 ± 59
303.15 K	–	936.4 ± 4.8	510 ± 40
308.15 K	–	933.4 ± 4.8	375 ± 28
313.15 K	–	930.4 ± 4.7	280 ± 21
318.15 K	–	927.4 ± 4.7	214 ± 15
323.15 K	–	924.5 ± 4.7	167 ± 12
328.15 K	–	921.6 ± 4.7	133 ± 9
333.15 K	–	918.7 ± 4.6	108 ± 7
338.15 K	–	915.8 ± 4.6	88 ± 6
343.15 K	–	912.8 ± 4.6	74 ± 5
348.15 K	–	909.9 ± 4.6	–
353.15 K	–	907 ± 4.6	–

CC(=O)[O-].CCCCCCCCCCCCCC[P+](CCCCCC)(CCCCCC)CCCCCC [trihexyl(tetradecyl)phosphonium acetate]
Conditions	mass density [kg/m3]	viscosity [mPa·s]
278.15 K	–	1820 ± 170
283.15 K	895 ± 4.5	1200 ± 110
288.15 K	891.9 ± 4.4	814 ± 69
293.15 K	888.9 ± 4.4	566 ± 45
295.15 K	887.6 ± 4.4	–
298.15 K	885.8 ± 4.4	406 ± 31
303.15 K	882.8 ± 4.4	298 ± 22
308.15 K	879.8 ± 4.3	224 ± 16
313.15 K	876.8 ± 4.3	172 ± 12
318.15 K	873.7 ± 4.3	135 ± 9
323.15 K	870.7 ± 4.3	107 ± 7
328.15 K	867.7 ± 4.3	–
333.15 K	864.7 ± 4.2	–
338.15 K	861.7 ± 4.2	–
343.15 K	858.7 ± 4.2	–
348.15 K	855.7 ± 4.2	–
353.15 K	852.7 ± 4.2	–
